Converted amounts (≈) assume the structure as drawn.
Tests used:
[1] = Hemin binding activity assay by 1H NMR (pseudocontact shifts); conditions: for Maximum induced Δδ: hemin induced pseudocontact chemical shift; for Maximum induced Δδ / Concentration dependence Δδ: DMSO-d6; for Concentration dependence Δδ: slope of Δδ v. hemin concentration
Protocol: (§1) As provided in Example 5, the hemin binding affinity for a series of tryptanthrin compounds with functional groups at the 8-position with different electron donating/withdrawing characteristics corresponding with the pharmacophore model of the present invention was determined by ^1H NMR. The binding interaction was measured as a function of the induced up-field shift in the chemical shift as a function of increasing hemin concentration. ^1H spectra of selected compounds each analog with an increasing concentration of hemin were collected and analyzed for the effect of the pseudocontact shifts.
It is well known that bio-molecules containing the paramagnetic species Fe^+3 induce via pseudocontact effect (a thru-space paramagnetic interaction, similar to the thru-space diopolar interaction or NOE) up-field chemical shifts of the ^1H, ^13C, ^15N atoms of bound ligands. See Serge Moreau et al. (1985) Biochemica et. Biophysica Acta 107-116; Alam, S. L., et al. (1998) J. Biomol. NMR 11:119-133; and Kalodimos, C. G., et al. (2000) J. Inorg. Biochem. 79:371-380, which are herein incorporated by reference. […] See Crowley, P. B., et al. (2001) J. Am. Chem. Soc. 123:10444-10453, which is herein incorporated by reference. Consequently, the closer a particular proton on the ligand is to the Fe^+3 atom, the greater the induced Δδ.
as §1, with “The” for “As provided in Example 5, the”, “using” for “by”, “of” for “of selected compounds”
To each sample, a 100 or 200 μl aliquot of a known concentration of hemin dissolved in 1.0 ml of DMSO-d6 was added. The concentrations of the tryptanthrin compounds compounds ranged from 3.0 to 8.0 mg per 500 μl of DMSO. A corresponding solution of hemin in DMSO was prepared to maintain a molar ratio of tryptanthrin compounds to hemin in the range of 1:1.0 to 1:1.5.
All ^1H NMR data was collected using a Bruker Avance-600 spectrometer using methods known in the art. See e.g. Wang, J., et al. (2001) J. Am. Chem. Soc. 123:8080-8088, which is herein incorporated by reference. The proton spectra were collected at 300 K, using a spectral width of 9090.9 Hz. All spectra were acquired with 64k data points in F2. All chemical shifts were referenced internally to TMS (0.00 ppm). The spectra were processed using XWINNMR (Bruker BioSpin Corporation, Billerica, Mass.) on a Silicon Graphics O2 workstation (Silicon Graphics, Mountain View, Calif.). Each data set was multiplied by a Gaussain window function with 0.3 Hz line broadening in each dimension before transformation.

[2] = tested on: P. falciparum W2 (Indochina) clone; assay: Antimalarial activity assay in vitro ([3H]hypoxanthine incorporation), W2 clone; format: cell-based; conditions: Plasmodium falciparum, Table 7, read-out: W-2
Source text: Although two P. falciparum malaria parasite clones, designated as Sierra Leone (D6) and Indochina (W2) were used in the susceptibility testing as disclosed in Example 1, the IC50 values obtained from the W2 clones were used as the activity parameter to develop the pharmacophore model as the D6 clone results closely paralleled the W2 clones. See U.S. Pat. No. 6,284,772, which is herein incorporated by reference.
(§2) The tryptanthrin compounds were examined for IC50 values against either the P. falciparum W2 (Indochina) or D6 (Sierra Leone) clones in vitro. See U.S. Pat. No. 6,284,772, which is herein incorporated by reference. The in vitro assays were conducted by using the semiautomated microdilution technique of Desjardins, et al. (1979) Antimicrob. Agents Chemther. 16:710-718 and the [^3H]hypoxanthine incorporation techniques of Chulay et al. (1983) Exp. Parasitol. 55:138-146, both of which are herein incorporated by reference. […] The clones were derived by direct visualization and micromanipulation from the patient isolates.
(§3) Test tryptanthrin compounds were initially dissolved in DMSO and diluted 400-fold in RPMI 1640 culture medium supplemented with 25 mM Hepes, 32 mM NaHCO3 and 10% Albumax I (GIBCO BRL, Grand Island, N.Y.). These solutions were subsequently serially diluted 2-fold with a Biomek 1000 (Beckman, Fullerton, Calif.) over 11 different concentrations. The parasites were exposed to serial dilutions of each compound for 48 hours and incubated at 37° C. with 5% O2, 5% CO2, and 90% N2 prior to the addition of [^3H]hypoxanthine. After a further incubation of 18 hours, parasite DNA was harvested from each microtiter well using a Packard Filtermate 196 Harvester (Meriden, Conn.) onto glass filters. Uptake of [^3H]hypoxanthine was measured with a Packard topcount scintillation counter.

[3] = Cyclic voltammetry, redox potentials; format: physicochemical; design: unit not given here; conditions: 1 mM in acetonitrile, 0.1 M tetrabutylammonium hexafluorophosphate, Ag-AgCl reference
Protocol: The redox potentials associated with electron transfer to the oxygen atoms in compounds was measured. Experiments were performed on a CV-50W Voltammetric analyzer with a C2 cell stand (Bioanalytical systems, West Lafayette Ind.).
Cyclic voltammetry experiments were performed on a CV-50W Voltammetric analyzer with a C2 cell stand (Bioanalytical systems, West Lafayette Ind.). A glassy carbon working, an Ag—AgCl reference electrode and a Pt auxiliary electrode were used in a 5 ml glass cell. All samples were dissolved in dry acetonitrile (Aldrich, St. Louis, Mo.) with 0.1 M tetrabutylammonium hexafluorophosphate (Aldrich, St. Louis, Mo.) as the supporting electrolyte. Each analog was prepared at a concentration of 1 mM and was degassed with nitrogen for 5 minutes prior to analysis. Samples were run at several scan rates ranging from 20 to 1000 mV/s. See Smyth, M. R., and Vos, J. G. Analytical Voltammetry; Elsevier: New York, 1992; Chapter 1, which is herein incorporated by reference.

[4] = tested on: P. falciparum D6 (Sierra Leone) clone; assay: Antimalarial activity assay in vitro ([3H]hypoxanthine incorporation), D6 clone; format: cell-based; conditions: Plasmodium falciparum, Table 7, read-out: D-6
Protocol: as §2, §3

malaria parasites = assay: In vivo testing (modified Thompson test), mouse malaria; design: species or system mice
Source text: The in vivo efficacy of the compounds of the present invention alone or in combination with an adjuvant can be determined in a modified Thompson test. This test measures the survivability of mice and parasitemia clearance following administration of the compound or composition of the invention on days 3-5 post infection. In brief, 5×10^5 malaria parasites of one or more of the four described strains are inoculated intraperitoneally to female mice that weight approximately 24-30 g. Each compound was dissolved in 5% sodium bicarbonate, and was administered p.o. twice daily from day 3 to day 5 postinfection. Total dosage of the compounds of the invention is 0.001 to 1000 mg/kg. The percent suppression of parasitemia in the treated mice compared to untreated controls is determined for each test compound. Survival of mice to day 60 post infection is considered a cure. Compounds are considered active when the survival time of the treated mice is greater than twice the control mice.
The test of the six compounds identified above were conducted by subcutaneous dosing in peanut oil. Formulated in peanut oil and injected s.c. (N=8) at various doses up to 190 mg/kg. […] Although parasites were not cleared, the survival of infected mice doubled that of the control. Life expectancy was 12-14 days compared to 6-7 days in the control (parasitized, untreated).

## COc1ccc2c(c1)C(=O)c1nc3ncccc3c(=O)n1-2 [DN23]
[1]
  Maximum induced Δδ: 0.208 ppm
  Concentration dependence Δδ: 0.119 ppm/mole %

## O=C1c2cc([N+](=O)[O-])ccc2-n2c1nc1ncccc1c2=O [DN40]
[1]; compared with DN48
  maximum pseudocontact shift relative to DN48: approximately 3 times
[1]
  Maximum induced Δδ: 1.538 ppm
  Concentration dependence Δδ: 0.4159 ppm/mole %

## O=C1c2cc(F)ccc2-n2c1nc1c(F)cccc1c2=O [WR281631]
[2]
  IC50: 1.58 ng/mL (≈ 0.00557 µM)
[3]
  Redox1: −593
  Redox 2: −1219
[4]
  IC50: 2.57 ng/mL (≈ 0.00904 µM)

## CCCCCCCC(=O)OCCN(C)c1ccc2c(=O)n3c(nc2c1)C(=O)c1cc(Cl)ccc1-3 [WR281591]
[2]
  IC50: 36.8 ng/mL (≈ 0.0764 µM)
[3]
  Redox1: −709
  Redox 2: −1375
[4]
  IC50: 70.1 ng/mL (≈ 0.146 µM)

## COc1cccc2c(=O)n3c(nc12)C(=O)c1cc(I)ccc1-3 [WR281635]
[2]
  IC50: 35.6 ng/mL (≈ 0.0882 µM)
[3]
  Redox1: −640
  Redox 2: −1230
[4]
  IC50: 95.3 ng/mL (≈ 0.236 µM)

## O=C1c2cc(F)ccc2-n2c1nc1ccccc1c2=O [WR^282611]
Malaria parasites; 190 mg/kg s.c. in peanut oil
  survival of infected mice relative to control: doubled
Malaria parasites; 190 mg/kg s.c. in peanut oil, control 6-7 days
  Life expectancy: 12 to 14 days
Malaria parasites; max. dosage 190 mg/kg s.c. in peanut oil
  activity: exhibited activity

## O=C1c2cc(Cl)ccc2-n2c1nc1cc(N3CCCCC3)ccc1c2=O [WR281647]
[2]
  IC50: 58.1 ng/mL (≈ 0.159 µM)
[3]
  Redox1: −696
  Redox 2: −1348
[4]
  IC50: 97.1 ng/mL (≈ 0.265 µM)

## CN(CCO)c1ccc2c(=O)n3c(nc2c1)C(=O)c1cc(F)ccc1-3 [WR281523]
[2]
  IC50: 2.46 ng/mL (≈ 0.00723 µM)
[3]
  Redox1: −630
  Redox 2: −1281
[4]
  IC50: 4.12 ng/mL (≈ 0.0121 µM)

## CN1CCN(c2ccc3c(=O)n4c(nc3c2)C(=O)c2cc(Cl)ccc2-4)CC1 [WR281588]
[2]
  IC50: 4.27 ng/mL (≈ 0.0112 µM)
[3]
  Redox1: −692
  Redox 2: −1324
[4]
  IC50: 10.5 ng/mL (≈ 0.0275 µM)

## O=C1c2cc(OC(F)(F)F)ccc2-n2c1nc1cc(SCCO)ccc1c2=O [WR281525]
[2]
  IC50: 1.25 ng/mL (≈ 0.00307 µM)
[3]
  Redox1: −600
  Redox 2: −1252
[4]
  IC50: 2.31 ng/mL (≈ 0.00566 µM)

## O=C1c2cc(Cl)ccc2-n2c1nc1cc(F)ccc1c2=O [WR281583]
[2]
  IC50: 4.74 ng/mL (≈ 0.0158 µM)
[3]
  Redox1: −586
  Redox 2: −1242
[4]
  IC50: 6.77 ng/mL (≈ 0.0225 µM)

## O=C1c2ccc(Cl)cc2-n2c1nc1ncccc1c2=O [DN48]
[1]
  Maximum induced Δδ: 0.389 ppm
  Concentration dependence Δδ: 0.119 ppm/mole %

## O=C1c2cc(F)ccc2-n2c1nc1ncccc1c2=O [DN63]
[1]
  Maximum induced Δδ: 0.360 ppm
  Concentration dependence Δδ: 0.1366 ppm/mole %

## O=C1c2cc(OC(F)(F)F)ccc2-n2c1nc1ncccc1c2=O [DN9]
[1]
  Maximum induced Δδ: 0.462 ppm
  Concentration dependence Δδ: 0.08951 ppm/mole %
